Experimental findings from US7064124B2, “NF-κB inhibitor containing substituted benzoic acid derivative as active ingredient” (Daiichi Suntory Pharma Co., Ltd., priority 2001, dated 2006) are described below.

The structures appear in SMILES notation. Structures can show the parent of a compound that is named as a salt.

One experiment has as its system NF-κB. In words: NF-κB luciferase reporter assay in A549/NF-κBLuc cells stimulated with IL-1β. It counts as cell-based, human. The settings on record: A549/NF-κBLuc cells; compound added 1 hour before IL-1β, then 3 hours incubation; luciferase activity; read-out: NF-κB Inhibitory Activity (IC50). As to the method:
Effect on Human Lung Cancer-Derived Cell A549 (A549/NF-κBluc) Containing Stably Introduced Luciferase Plasmid (pNFκB-Luc, Stratagene. U.S.A.) Regulated by NF-κB Binding Sequence
Using Lipofectamine (Lifetech Oriental, Tokyo), pNFκB-Luc and pSV2neo (Clontech, U.S.A.) were co-transfected into the A549 cell (ATCC CCL185) and G418 sulfate (1 mg/ml, Lifetech Oriental) was added to the culture medium to select cells containing stably introduced pNFκB-Luc A549/NF-κBLuc.
The compound obtained in Examples each was added to A549/NF-κBLuc and one hour after that, IL-1β capable of activating NF-κB was added. The incubation was further continued for 3 hours.
NF-κB Inhibitory Activity (IC50) of Substituted Benzoic Acid Derivitives: […]
Background: Reporter assays use an easily measured gene product as a stand-in for the process of interest.
The IC50 is the point on the concentration scale where inhibition reaches its midpoint. For the compound `COC1=C(OC)C(=O)C(Cc2ccc(OCc3cccnc3)c(C(=O)N3CCCCC3)c2)=C(C)C1=O` [Example 92 (HCl)], the IC50 turned out to be 46 µM.
The same measure, in the same setting: next, `COC1=C(OC)C(=O)C(Cc2ccc(OCc3ccncc3)c(C(=O)N3CCCCC3)c2)=C(C)C1=O` [Example 95 (pTsOH)]: 51 µM.

Staying with this experiment, now noted: Homo sapiens, A549, A549/NF-κBLuc cells; compound added 1 hour before IL-1β, then 3 hours incubation; luciferase activity; read-out: NF-κB Inhibitory Activity (IC50).
Take `COC1=C(OC)C(=O)C(Cc2ccc(C(=O)N3CCCCC3)c(OCc3ccccc3)c2)=C(C)C1=O` [Example 57, N-[4-(5,6-Dimethoxy-3-methyl-1,4-benzoquinon-2-yl)methyl-2-benzyloxybenzoyl]piperidine]: the IC50 is 29 µM.
The same measure, in the same setting: the figure for `COC1=C(OC)C(=O)C(Cc2cccc(OCc3ccccc3)c2C(=O)Nc2ccc(OC)cc2)=C(C)C1=O` [Example 60, N-[6-(5,6-Dimethoxy-3-methyl-1,4-benzoquinon-2-yl)methyl-2-benzyloxybenzoyl]-4-methoxyaniline] is 19 µM; for `COC1=C(OC)C(=O)C(Cc2ccc(OCc3ccccc3)c(C(=O)N3CCCCC3)c2)=C(C)C1=O` [Example 61, N-[5-(5,6-Dimethoxy-3-methyl-1,4-benzoquinon-2-yl)methyl-2-benzyloxybenzoyl]piperidine] it is 31 µM.
In the case of `COC1=C(OC)C(=O)C(Cc2cccc(C(=O)N3CCCCC3)c2OCc2ccccc2)=C(C)C1=O` [Example 64, N-[3-(5,6-Dimethoxy-3-methyl-1,4-benzoquinon-2-yl)methyl-2-benzyloxybenzoyl]piperidine], the IC50 worked out at 33 µM.
`COC1=C(OC)C(=O)C(Cc2cccc(C(=O)N3CCOCC3)c2OCc2ccccc2)=C(C)C1=O` [Example 65, N-[3-(5,6-Dimethoxy-3-methyl-1,4-benzoquinon-2-yl)methyl-2-benzyloxybenzoyl]morpholine]: the IC50 stood at 37 µM.
As for `COC1=C(OC)C(=O)C(Cc2ccc(OC(C)=O)c(C(=O)Nc3ccc(OC)cc3)c2)=C(C)C1=O` [Example 70, N-[5-(5,6-Dimethoxy-3-methyl-1,4-benzoquinon-2-yl)methyl-2-acetoxybenzoyl]-4-methoxyaniline], the IC50 came to 15 µM.
Turning to `COC1=C(OC)C(=O)C(Cc2cccc(C(=O)N3CCCCC3)c2OC(C)=O)=C(C)C1=O` [Example 71, N-[3-(5,6-Dimethoxy-3-methyl-1,4-benzoquinon-2-yl)methyl-2-acetoxybenzoyl]piperidine], the half-inhibitory concentration (IC50) came to 36 µM.
The same measure, in the same setting: the figure for `COC1=C(OC)C(=O)C(Cc2cccc(C(=O)N3CCOCC3)c2OC(C)=O)=C(C)C1=O` [Example 72, N-[3-(5,6-Dimethoxy-3-methyl-1,4-benzoquinon-2-yl)methyl-2-acetoxybenzoyl]morpholine] is 43 µM.
Still for that read-out and setting: the figure for `COC1=C(OC)C(=O)C(Cc2cccc(C(=O)Nc3ccc(OC)cc3)c2OC(C)=O)=C(C)C1=O` [Example 73, N-[3-(5,6-Dimethoxy-3-methyl-1,4-benzoquinon-2-yl)methyl-2-acetoxybenzoyl]-4-methoxyaniline] is 31 µM; for `COC1=C(OC)C(=O)C(Cc2ccc(O)c(C(=O)Nc3ccc(OC)cc3)c2)=C(C)C1=O` [Example 76, N-[5-(5,6-Dimethoxy-3-methyl-1,4-benzoquinon-2-yl)methyl-2-hydroxybenzoyl]-4-methoxyaniline] it is 7 µM.
On the same count and under the same terms, the figure for `COC1=C(OC)C(=O)C(Cc2cccc(C(=O)N3CCCCC3)c2O)=C(C)C1=O` [Example 77, N-[3-(5,6-Dimethoxy-3-methyl-1,4-benzoquinon-2-yl)methyl-2-hydroxybenzoyl]piperidine] is 35 µM; for `COC1=C(OC)C(=O)C(Cc2cccc(C(=O)N3CCOCC3)c2O)=C(C)C1=O` [Example 78, N-[3-(5,6-Dimethoxy-3-methyl-1,4-benzoquinon-2-yl)methyl-2-hydroxybenzoyl]morpholine] it is 57 µM; for `COC1=C(OC)C(=O)C(Cc2cccc(C(=O)Nc3ccc(OC)cc3)c2O)=C(C)C1=O` [Example 79, N-[3-(5,6-Dimethoxy-3-methyl-1,4-benzoquinon-2-yl)methyl-2-hydroxybenzoyl]-4-methoxyaniline] it is 27 µM.
In the case of `COC1=C(OC)C(=O)C(Cc2ccc(OC)c(C(=O)N3CCCCC3)c2)=C(C)C1=O` [Example 80, N-[5-(5,6-Dimethoxy-3-methyl-1,4-benzoquinon-2-yl)methyl-2-methoxybenzoyl]piperidine], the IC50 is 82 µM.
Turning to `COC1=C(OC)C(=O)C(Cc2ccc(OC)c(C(=O)Nc3ccc(OC)cc3)c2)=C(C)C1=O` [Example 82, N-[5-(5,6-Dimethoxy-3-methyl-1,4-benzoquinon-2-yl)methyl-2-methoxybenzoyl]-4-methoxyaniline], the IC50 turned out to be 84 µM.
Same read-out and setting: next, `COC1=C(OC)C(=O)C(Cc2ccc(OC(C)C)c(C(=O)N3CCOCC3)c2)=C(C)C1=O` [Example 84, N-[5-(5,6-Dimethoxy-3-methyl-1,4-benzoquinon-2-yl)methyl-2-isopropoxybenzoyl]morpholine]: 63 µM; `COC1=C(OC)C(=O)C(Cc2ccc(OC(C)C)c(C(=O)Nc3ccc(OC)cc3)c2)=C(C)C1=O` [Example 85, N-[5-(5,6-Dimethoxy-3-methyl-1,4-benzoquinon-2-yl)methyl-2-isopropoxybenzoyl]-4-methoxyaniline]: 65 µM.
Still for that read-out and setting: the figure for `COC1=C(OC)C(=O)C(Cc2ccc(Oc3ccccc3)c(C(=O)N3CCCCC3)c2)=C(C)C1=O` [Example 86, N-[5-(5,6-Dimethoxy-3-methyl-1,4-benzoquinon-2-yl)methyl-2-phenoxybenzoyl]piperidine] is 27 µM; for `COC1=C(OC)C(=O)C(Cc2ccc(Oc3ccccc3)c(C(=O)N3CCOCC3)c2)=C(C)C1=O` [Example 87, N-[5-(5,6-Dimethoxy-3-methyl-1,4-benzoquinon-2-yl)methyl-2-phenoxybenzoyl]morpholine] it is 19 µM; for `COC1=C(OC)C(=O)C(Cc2ccc(Oc3cccc(OC)c3)c(C(=O)N3CCCCC3)c2)=C(C)C1=O` [Example 89, N-[5-(5,6-Dimethoxy-3-methyl-1,4-benzoquinon-2-yl)methyl-2-(3-methoxyphenoxy)benzoyl]piperidine] it is 45 µM.
The same measure, in the same setting: next, `COC1=C(OC)C(=O)C(Cc2ccc(OCc3cccnc3)c(C(=O)N3CCCCC3)c2)=C(C)C1=O` [Example 92, N-[5-(5,6-Dimethoxy-3-methyl-1,4-benzoquinon-2-yl)methyl-2-(3-pyridylmethyloxy)benzoyl]piperidine]: 49 µM; `COC1=C(OC)C(=O)C(Cc2ccc(OCc3cccnc3)c(C(=O)Nc3ccc(OC)cc3)c2)=C(C)C1=O` [Example 94, N-[5-(5,6-Dimethoxy-3-methyl-1,4-benzoquinon-2-yl)methyl-2-(3-pyridylmethyloxy)benzoyl]-4-methoxyaniline]: 45 µM.
`COC1=C(OC)C(=O)C(Cc2ccc(OCc3ccncc3)c(C(=O)N3CCCCC3)c2)=C(C)C1=O` [Example 95, N-[5-(5,6-Dimethoxy-3-methyl-1,4-benzoquinon-2-yl)methyl-2-(4-pyridylmethyloxy)benzoyl]piperidine]: the IC50 was determined as 35 µM.
On the same count and under the same terms, next, `COC1=C(OC)C(=O)C(Cc2ccc(OCC(=O)OC(C)(C)C)c(C(=O)N3CCCCC3)c2)=C(C)C1=O` [Example 104, N-[5-(5,6-Dimethoxy-3-methyl-1,4-benzoquinon-2-yl)methyl-2-(tert-butoxycarbonylmethyloxy)benzoyl]piperidine]: 29 µM.
